Test results taken from article PMC12036814 (Angewandte Chemie (International Ed. in English), 2025).

Columns and labels:
[1] = tested on: PDL-hTERT cells; experiment: Live/dead staining and microscopy (morphology); type: cell-based; parameters: dose or concentration left out as unconfirmed; conditions: […] µM, 7 days
Protocol: For PDL-hTERT cells (9 x 10^4 cells /well) were plated in each well of 6 -well plates (Greiner Bio-One,
Frickenhausen, Germany) and incubated for 3 days at 37 °C and 5% CO2. Afterwards, cells were treated
Afterwards, the cells were stained with 1 µM calcein
acetoxymethyl (calcein AM) and 10 µM propidium iodide, diluted from 100 µM and 1 mM stock
solutions respectively. The diluent was given to the cells in a mixture of 1:1 PBS to culture medium.
Calcein AM is cell permeable and in living cells is converted to fluorescent calcein by intracellular
estarases, thus labelling the cells in green colour. Propidium iodide is a fluorescent dye that can only
traverse cells with damaged membranes, thus marking dead cells in red colour (to note: dead cells
frequently detach during the staining procedure). Last, cells were imaged on day 1, 4, and 7 in phase -
contrast, FITC (green) and Cy3 (red) fluorescent channels using Zeiss AxioVert.A1 microscope equipped
with AxioCam ICc1 camera (Carl Zeiss, Göttingen, Germany). Each image was automatically processed
using the “Min/Max” option provided by the micriscope software Zen 2.3 lite (Carl Zeiss). The
experiment was repeated three independent times (n = 3), each performed in duplicate wells for
control and Cipro-containing groups.

[2] = biological target: T1, PTGR2 (Homo sapiens, UniProt Q8N8N7); experiment: PTGR2 activity assay (LC-MS/MS); type: biochemical; conditions: tested up to 250 μM, data not shown
T1 construct: purchased Antikoerper-online ABIN1098255
T1 sequence (Q8N8N7 whole entry): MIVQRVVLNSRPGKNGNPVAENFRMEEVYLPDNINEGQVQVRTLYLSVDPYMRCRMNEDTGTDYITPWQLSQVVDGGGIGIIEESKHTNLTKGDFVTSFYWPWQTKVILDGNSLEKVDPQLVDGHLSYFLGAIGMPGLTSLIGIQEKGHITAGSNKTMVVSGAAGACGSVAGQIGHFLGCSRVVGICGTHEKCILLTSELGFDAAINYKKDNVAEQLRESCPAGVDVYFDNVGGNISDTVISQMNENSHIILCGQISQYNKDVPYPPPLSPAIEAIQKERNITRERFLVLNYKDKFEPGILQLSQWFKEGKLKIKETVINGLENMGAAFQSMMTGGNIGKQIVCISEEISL
Protocol: (§1) AIFM1 expression & purification
(§2) Recombinant AIFM1 was expressed in a Rosetta2 E. coli strain. Bacterial growth was conducted in LB media supplemented with riboflavin and FAD shaking at 37°C and 180 rpm. Expression was induced with 1.0 mM IPTG and incubated for further 16 h before harvesting. Cells were harvested on ice in PBS and cell pellets stored at -20°C. Cells were lysed by French press and the 6xHis-tagged constructs were purified by Immobilized Metal Affinity Chromatography using Ni Sepharose (6 Fast Flow, GE). The centrifugation-cleared bacterial lysate was bound to beads in binding buffer (200 mM NaCl, 20 mM Tris/Cl pH = 7.4). […]
(§3) For gel-based fluorescence labelling of recombinant AIFM1, 1.7 µM recombinant protein was spiked - in to PBS or PBS -diluted HEK293 cell lysate ( 100 µg per reaction sample). […]
(§4) Click Master-mix (8 µL, 100 µM TAMRA-azide, Baseclick, Neuried, Germany, Cat# BCFA-008-10, 500 µM BTTAA ligand, Jena Bioscience, Jena, Germany, CLK -067, 1 mM CuSO4) was added and the CuAAC reaction started by addition of 2 µL of aq. sodium ascorbate (c end= 2 mM). […] Fluorescence scanning was performed using a Las-3000 fluorescence darkbox (Fujifilm, Minato, Japan) with a Fujinon VRF 43LMD Lens, 605DF40 filter and 520 nm EPI excitation wavelength and loading controls were developed with Coomassie stain afterwards. […]

[3] = tested on: AIFM1 knockout HEK293 cells; experiment: Whole proteome analysis of AIFM1 knockout HEK293 cells; type: cell-based, human; parameters: dose or concentration left out as unconfirmed; conditions: […] μM, 3 days, versus vehicle-treated AIFM1 knockout cells
[4] = biological target: T2, AIFM1 (Homo sapiens, UniProt O95831); experiment: Gel-based labelling of recombinant AIFM1 spiked into HEK-293 lysate; type: binding; conditions: excess compound added prior to probe
T2 construct: made in house; host or cells: E. coli Rosetta2
T2 sequence (O95831 102-613): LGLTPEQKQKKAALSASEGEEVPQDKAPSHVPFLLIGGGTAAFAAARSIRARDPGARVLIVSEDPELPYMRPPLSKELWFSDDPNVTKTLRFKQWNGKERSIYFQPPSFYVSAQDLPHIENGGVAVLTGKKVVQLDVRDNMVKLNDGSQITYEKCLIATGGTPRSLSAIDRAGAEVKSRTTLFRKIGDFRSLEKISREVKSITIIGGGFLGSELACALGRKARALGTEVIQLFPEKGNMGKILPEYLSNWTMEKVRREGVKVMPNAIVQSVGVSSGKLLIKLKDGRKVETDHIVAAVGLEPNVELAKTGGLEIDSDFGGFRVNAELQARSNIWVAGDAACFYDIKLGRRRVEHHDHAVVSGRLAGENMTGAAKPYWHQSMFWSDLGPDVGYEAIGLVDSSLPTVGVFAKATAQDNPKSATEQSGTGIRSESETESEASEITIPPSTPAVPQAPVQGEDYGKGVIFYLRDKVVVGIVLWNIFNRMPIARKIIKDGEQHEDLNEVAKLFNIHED
Protocol: as §1, §2, §3, §4

[5] = tested on: HEK‐293 cells; experiment: Whole proteome analysis (LC-MS/MS, LFQ) of treated HEK-293 cells; parameters: regulation of ETC complex I and IV subunits: dose or concentration left out as unconfirmed; conditions: […] μM, 3 h to 14 days, versus control
[6] = biological target: T3, NUDT1 (Homo sapiens, UniProt P36639); experiment: NUDT1 in vitro activity assay (malachite green); type: biochemical; parameters: Full length NUDT1 gene synthesis; N-terminal His tag with thrombin site from pET28a(+) (NdeI/XhoI) (N, cleaved yes); made in house; host or cells: E. coli BL21 (DE3); conditions: 100 μM
[7] = biological target: T3, NUDT1; experiment: Gel-based AfBPP labelling of recombinant NUDT1 spiked into human lysate; type: binding; parameters: Full length NUDT1 gene synthesis; N-terminal His tag with thrombin site from pET28a(+) (NdeI/XhoI) (N, cleaved yes); made in house; host or cells: E. coli BL21 (DE3); conditions: parent compound added before probe

O=C(O)c1cn(C2CC2)c2cc(N3CCNCC3)c(F)cc2c1=O [Ciprofloxacin]
cell morphology [1]: cell rounding
PTGR2 activity [2]: not significantly affected
regulation of ETC subunits in AIFM1 knockout cells [3]: only minor additional alterations of ETC subunits
competition of Cipro P1 labelling of recombinant AIFM1 [4]: strong reduction of signal intensity
regulation of ETC complex I and IV subunits [5]: pronounced and time‐dependent down‐regulation of both complexes
NUDT1 in vitro activity, inhibition [6]: significant partial inhibition
competition of Cipro P2 / Levo P2 labeling of recombinant NUDT1 [7]: competed
